According to PubChem BioAssay (NCI):
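How tested: cells in 96-well plates exposed to compound for 48 hours at five concentrations. TGI denotes the concentration required for complete inhibition of growth.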

Legend:
Test in all cases: NCI tumour cell line growth inhibition, 48 h
CAKI-1 renal = system: CAKI-1 renal
DLD-1 colon = system: DLD-1 colon
DMS 114 small cell lung = system: DMS 114 small cell lung
HOP-18 NSCLC = system: HOP-18 NSCLC
KM20L2 colon = system: KM20L2 colon
M19-MEL melanoma = system: M19-MEL melanoma
NCI-H23 lung = system: NCI-H23 lung
RPMI-8226 leukemia = system: RPMI-8226 leukemia
SF-539 CNS = system: SF-539 CNS
SNB-78 CNS = system: SNB-78 CNS
UO-31 renal = system: UO-31 renal
XF 498 CNS = system: XF 498 CNS
K-562 leukemia = system: K-562 leukemia
MCF7 breast = system: MCF7 breast
NCI/ADR-RES ovarian = system: NCI/ADR-RES ovarian
DU-145 prostate = system: DU-145 prostate
HS 578T breast = system: HS 578T breast
MDA-MB-231 breast = system: MDA-MB-231 breast
MDA-MB-435 = system: MDA-MB-435
T-47D breast = system: T-47D breast

| Structure (SMILES) | TGI (CAKI-1 renal) | TGI (DLD-1 colon) | TGI (DMS 114 small cell lung) | TGI (HOP-18 NSCLC) | TGI (KM20L2 colon) | TGI (M19-MEL melanoma) | TGI (NCI-H23 lung) | TGI (RPMI-8226 leukemia) | TGI (SF-539 CNS) | TGI (SNB-78 CNS) | TGI (UO-31 renal) | TGI (XF 498 CNS) | TGI (K-562 leukemia) | TGI (MCF7 breast) | TGI (NCI/ADR-RES ovarian) | TGI (DU-145 prostate) | TGI (HS 578T breast) | TGI (MDA-MB-231 breast) | TGI (MDA-MB-435) | TGI (T-47D breast) |
| --- | --- | --- | --- | --- | --- | --- | --- | --- | --- | --- | --- | --- | --- | --- | --- | --- | --- | --- | --- | --- |
| CCOc1ccc(C2=C(Cl)c3cc(OC)c(OC)cc3C2Cl)cc1 (stereo not given) | > 100 µM | > 100 µM | 56.2 µM | > 100 µM | > 100 µM | > 100 µM | > 100 µM | 73 µM | > 100 µM | > 100 µM | > 100 µM | 42.9 µM | – | – | – | – | – | – | – | – |
| Nc1ccc2cc(S(=O)(=O)O)cc(O)c2c1N=Nc1ccc(NC(=O)Nc2ccc(N=Nc3c(N)ccc4cc(S(=O)(=O)O)cc(O)c34)c(S(=O)(=O)O)c2)cc1S(=O)(=O)O | – | > 100 µM | > 100 µM | > 100 µM | – | > 100 µM | > 100 µM | – | > 100 µM | > 100 µM | > 100 µM | > 100 µM | > 100 µM | > 100 µM | > 100 µM | – | – | – | – | – |
| CN(C)CCCc1cccnc1 | > 100 µM | – | – | – | – | – | > 100 µM | > 100 µM | – | – | > 100 µM | – | > 100 µM | > 100 µM | > 100 µM | > 100 µM | > 100 µM | > 100 µM | > 100 µM | > 100 µM |
| COc1ccc2c(C)cc(N/N=C/c3sccc3C)nc2c1 | – | – | – | – | – | – | 33.1 µM | 26.6 µM | 27.5 µM | – | 54.8 µM | – | – | 26.1 µM | 26.2 µM | 23.3 µM | 36.7 µM | 5.9 µM | 35.4 µM | 33.6 µM |
| CC(=O)Nc1ccc(C2=N/C(=C\c3ccc(Cl)c(Cl)c3)C(=O)O2)cc1 | > 100 µM | > 100 µM | > 100 µM | > 100 µM | > 100 µM | > 100 µM | > 100 µM | > 100 µM | > 100 µM | > 100 µM | > 100 µM | > 100 µM | > 100 µM | – | – | – | – | – | – | – |
| CC1C(=O)C(C)C(c2cccs2)N(N=O)C1c1cccs1 (stereo not given) | > 100 µM | > 100 µM | > 100 µM | – | > 100 µM | > 100 µM | > 100 µM | > 100 µM | > 100 µM | > 100 µM | > 100 µM | > 100 µM | > 100 µM | > 100 µM | > 100 µM | – | – | – | – | – |
| O=C1ON(Cc2ccccc2)C(c2ccccc2)N1c1ccccc1 (stereo not given) | – | > 100 µM | > 100 µM | > 100 µM | > 100 µM | > 100 µM | > 100 µM | > 100 µM | > 100 µM | > 100 µM | > 100 µM | > 100 µM | > 100 µM | > 100 µM | > 100 µM | – | – | – | – | – |
| c1ccc2c(c1)ccc1ncccc12 | > 100 µM | – | – | – | – | – | > 100 µM | > 100 µM | > 100 µM | – | > 100 µM | – | > 100 µM | > 100 µM | > 100 µM | > 100 µM | > 100 µM | > 100 µM | > 100 µM | > 100 µM |
| O=C(N1CCOCC1)C1(c2ccccc2)CCNCC1 | > 100 µM | – | – | – | – | – | > 100 µM | > 100 µM | > 100 µM | – | > 100 µM | – | > 100 µM | > 100 µM | > 100 µM | > 100 µM | > 100 µM | > 100 µM | > 100 µM | > 100 µM |
| NC(=O)NC(CC(=O)O)C(=O)O (stereo not given) | > 100 µM | – | – | – | – | – | > 100 µM | > 100 µM | – | – | > 100 µM | – | > 100 µM | – | > 100 µM | > 100 µM | > 100 µM | > 100 µM | > 100 µM | > 100 µM |
| COc1ccc(N2C(=O)C3c4[nH]c5ccccc5c4C4CCCCCCCC4C3C2=O)cc1 (stereo not given) | > 10 µM | – | – | – | – | – | > 10 µM | > 10 µM | > 10 µM | – | > 10 µM | – | > 10 µM | > 10 µM | > 10 µM | > 10 µM | > 10 µM | > 10 µM | > 10 µM | > 10 µM |
| CCc1ccc(CCC(=O)O)nc1 | > 100 µM | – | – | – | – | – | > 100 µM | > 100 µM | > 100 µM | – | > 100 µM | – | > 100 µM | > 100 µM | > 100 µM | > 100 µM | > 100 µM | > 100 µM | > 100 µM | > 100 µM |
| COc1nc(/C=N/NC(N)=S)nc(OC)n1 | > 100 µM | > 100 µM | > 100 µM | > 100 µM | > 100 µM | > 100 µM | > 100 µM | > 100 µM | > 100 µM | > 100 µM | > 100 µM | > 100 µM | > 100 µM | – | – | – | – | – | – | – |
| COc1cc(C2c3cc4c(cc3OC3(O)COC(=O)C23)OCO4)cc(OC)c1OC (stereo not given) | > 100 µM | > 100 µM | > 100 µM | > 100 µM | 54.3 µM | > 100 µM | > 100 µM | > 100 µM | 79.3 µM | > 100 µM | > 100 µM | 96.7 µM | > 100 µM | – | – | – | – | – | – | – |
| COc1cc(C2C(Cl)C(=O)N2NC(=O)c2ccc(NC(C)=O)cc2)cc(Br)c1O (stereo not given) | – | > 100 µM | – | > 100 µM | – | > 100 µM | > 100 µM | > 100 µM | > 100 µM | – | > 100 µM | – | > 100 µM | – | – | – | – | – | – | – |
